Data taken from patent publication US4874882A, “Process for preparing monosodium phosphoenolpyruvate” (Ube Industries, Ltd., priority 1986, dated 1989).

Assays:
[1] = system: ischemic kidney of rabbit; assay: Effect on ischemic kidney of rabbit (BUN and creatinine value in blood, recovery of renal function); type: in vivo, male Japanese white-strain rabbits
Text: The animals used in this experiment were 10 male Japanese white-strain rabbits, and were grouped into a group of 5 rabbits to which the injection of monosodium phosphoenolpyruvate (hereinafter simply called "PEP·Na") prepared in Example 4 should be administered and a group of 5 rabbits to which a physiological saline should be administered,to carry out experiments as follows:
To each of the rabbits used in this experiment, a 1% aqueous solution of pentobarbital sodium was intravenously injected in an amount of 3 ml/kg (b.w.) to apply general anesthesia, and a median incision of its venter was carried out to extirpate the right kidney. Subsequently, the left kidney was exposed to infiltrate xylocaine into the surrounding portion of the renal pelvis, and the left renal artery was blocked while handling the kidney with tender care. More specifically, the blood flow of the renal artery was blocked for 60 minutes, and then released for 10 minutes, followed by blocking for more 60 minutes, to perform ischemia for 120 minutes in total. Thereafter, blocking was released for reperfusion. During these procedures, to the rabbits belonging to the PEP·Na group, PEP·Na was intravenously administered in the form of an injection prepared in Example, with a dose of 10 mg/kg (b.w.) every time immediately before release of the first and the second blocking, and, also after release of the blocking, PEP·Na was similarly administered with a dose of 10 mg/kg (b.w.) once a day. On the other hand, to the rabbits belonging to the control group, a physiological saline was intravenously administered in an amount of 1 ml/kg (b.w.) every time immediately before release of the first and the second blocking, and, also after release of the blocking, the physiological saline was similarly administered in an amount of 1 ml/kg (b.w.) once a day, every day.
Next, blood urea nitrogen (hereinafter "BUN") and creatinine value which are standards to know the morbidity of a kidney were assayed with time to make an index showing the recovery rate of renal function. Results obtained are shown in Table 1 and Table 2 and also in FIG. 1 and FIG. 2.

[2] = system: ischemic kidney of beagle; assay: Effect on ischemic kidney of beagle (BUN and creatinine value, recovery of renal function); type: in vivo, male beagles
Protocol: The animals used in this experiment were 6 male beagles, and were grouped into a group of 3 beagles to which the injection of PEP·Na prepared in Example should be administered and a group of 3 beagles to which a physiological saline should be administered, to carry out experiments as follows in the same manner as in Test Example 1.
To each of the beagles, a 5% aqueous solution of pentobarbital sodium was intravenously injected in an amount of 0.5 ml/kg (b.w.) to apply general anesthesia, and a median incision of its venter was carried out to extirpate the right kidney. Subsequently, the left kidney was exposed to infiltrate xylocaine into the surrounding portion of the renal pelvis, and the blood flow of the left renal artery was blocked for 90 minutes while handling the kidney with tender care. Thereafter, blocking was released for reperfusion. To the beagles belonging to the PEP·Na administered group, PEP·Na was intravenously administered in the form of an injection prepared in Example, with a dose of 100 mg/kg (b.w.) every time immediately after release of blocking, and, also, thereafter, PEP·Na was similarly administered with a dose of 100 mg/kg (b.w.) once a day every day. On the other hand, to the beagles belonging to the control group, physiological saline was intravenously administered in an amount of 10 ml/kg (b.w.) every time immediately after release of blocking, and, also thereafter, physiological saline was similarly administered in an amount of 10 ml/kg (b.w.) once a day.
Next, BUN and creatinine value were assayed with time to make an index showing the recovery rate of renal function. Results obtained are shown in Table 3 and Table 4 and also in FIG. 3 and FIG. 4.

[3] = Acute toxicity (LD50) to beagle; type: in vivo; settings: dog, in vivo, beagle
Protocol: (§1) Acute toxicity (LD50) in the case where monosodium phosphoenolpyruvate monohydrate was administered to a beagle was examined.

beagle = assay: Acute toxicity (LD50) to beagle; type: in vivo; settings: conclusion from LD50 in beagle
Protocol: as §1

[4] = after 1 day, 10 mg/kg i.v. before each release of blocking, then once a day
[5] = after 2 days, 10 mg/kg i.v. before each release of blocking, then once a day
[6] = after 3 days, 10 mg/kg i.v. before each release of blocking, then once a day
[7] = after 4 days, 10 mg/kg i.v. before each release of blocking, then once a day
[8] = after 5 days, 10 mg/kg i.v. before each release of blocking, then once a day
[9] = immediately before blocking (baseline)
[10] = rabbits, 1 day (24 hours) after release of blocking
[11] = rabbits, after day 1, over a period of 4 days, vs control group
[12] = after 1 day, 100 mg/kg i.v. immediately after release of blocking, then once a day
[13] = after 2 days, 100 mg/kg i.v. immediately after release of blocking, then once a day
[14] = after 3 days, 100 mg/kg i.v. immediately after release of blocking, then once a day
[15] = after 4 days, 100 mg/kg i.v. immediately after release of blocking, then once a day

## C=C(OP(=O)(O)O)C(=O)O [PEP.Na, monosodium phosphoenolpyruvate monohydrate]
[1]; [4]
  BUN of rabbits in PEP.Na-administered group: 54.2 ± 2.2 mg/dL
  Creatinine value of rabbits in PEP.Na-administered group: 2.83 ± 0.74 mg/dL
[1]; [5]
  BUN of rabbits in PEP.Na-administered group: 58.0 ± 15.2 mg/dL
  Creatinine value of rabbits in PEP.Na-administered group: 2.61 ± 0.87 mg/dL
[1]; [6]
  BUN of rabbits in PEP.Na-administered group: 44.1 ± 10.5 mg/dL
  Creatinine value of rabbits in PEP.Na-administered group: 2.06 ± 0.72 mg/dL
[1]; [7]
  BUN of rabbits in PEP.Na-administered group: 35.5 ± 11.0 mg/dL
  Creatinine value of rabbits in PEP.Na-administered group: 1.73 ± 0.40 mg/dL
[1]; [8]
  BUN of rabbits in PEP.Na-administered group: 15.0 ± 5.8 mg/dL
  Creatinine value of rabbits in PEP.Na-administered group: 1.19 ± 0.17 mg/dL
[1]; [9]
  Creatinine value of rabbits in PEP.Na-administered group: 1.18 ± 0.06 mg/dL
[1]; immediately before blocking (baseline), mean ± spread
  BUN of rabbits in PEP.Na-administered group: 14.5 ± 1.3 mg/dL
[1]; rabbit
  recovery of renal function: apparently effective for the recovery of renal function
[1]; [10]
  BUN compared with control group: significantly lower value of BUN
  creatinine compared with control group: significantly lower value of creatinine
[1]; [11]
  time course of BUN: gradually decreases thereafter over a period of 4 days and gets back to the value given before blocking earlier than in control group
  time course of creatinine: gradually decreases thereafter over a period of 4 days and gets back to the value before blocking earlier than in control group
[2]; [12]
  BUN of beagles in PEP.Na-administered group: 46 ± 8.3 mg/dL
  Creatinine value of beagles in PEP.Na-administered group: 3.0 ± 0.45 mg/dL
[2]; [13]
  BUN of beagles in PEP.Na-administered group: 63 ± 10.1 mg/dL
  Creatinine value of beagles in PEP.Na-administered group: 2.9 ± 0.41 mg/dL
[2]; [14]
  BUN of beagles in PEP.Na-administered group: 52 ± 9.6 mg/dL
  Creatinine value of beagles in PEP.Na-administered group: 2.5 ± 0.33 mg/dL
[2]; [15]
  BUN of beagles in PEP.Na-administered group: 44 ± 9.2 mg/dL
  Creatinine value of beagles in PEP.Na-administered group: 2.0 ± 0.31 mg/dL
[2]; beagle
  recovery of renal function: apparently effective for the recovery of renal function
[2]; beagles, 1 day (24 hours) after release of blocking
  BUN compared with control group: significantly lower value of BUN
[2]; beagles, 1 day after release of blocking
  creatinine value compared with control group: significantly lower value of creatinine value
[2]; beagles, after day 1, over a period of 3 days
  time course of creatinine value: gradually decreases thereafter over a period of 3 days
[2]; beagles, after release of blocking
  time course of BUN: reaches to a maximum after 2 days, but thereafter gradually decreases
[2]; [9]
  BUN of beagles in PEP.Na-administered group: 15 ± 0.5 mg/dL
  Creatinine value of beagles in PEP.Na-administered group: 0.8 ± 0.23 mg/dL
[3]; intravenous
  LD50: ≥ 1000 mg/kg
[3]; oral
  LD50: ≥ 3000 mg/kg
beagle
  safety to a living body: very safe substance
